Measurements as given in patent US20080261977A1, “Pyrimidine Derivatives as Cannabinoid Receptor Modulators” (priority 2004, published 2008).
Structures can show the parent of a compound that is named as a salt. Where two headings read alike, the source gives them in different places.

What was measured:
[1] = biological target: T1, human cannabinoid CB1 receptor (Homo sapiens, UniProt P21554); assay: Cannabinoid CB1 receptor agonist activity, yeast (Saccharomyces cerevisiae) cells expressing the receptor, FDGlu fluorescence; assay type: cell-based; details: for Emax: read-out: efficacy (Emax relative to HU210) at the cloned human CB1 receptor
T1 construct: expressed in transfected cells; host or cells: Saccharomyces cerevisiae strain MMY23 (cassette integrated at the ura3 locus; chimeric Gpa1/Gαi3)
Procedure: The cannabinoid CB1 receptor agonist activity of the compounds of formula (I) was determined in accordance with the following experimental method.
Yeast (Saccharomyces cerevisiae) cells expressing the human cannabinoid CB1 receptor were generated by integration of an expression cassette into the ura3 chromosomal locus of yeast strain MMY23. This cassette consisted of DNA sequence encoding the human CB1 receptor flanked by the yeast GPD promoter to the 5′ end of CB 1 and a yeast transcriptional terminator sequence to the 3′ end of CB1. MMY23 expresses a yeast/mammalian chimeric G-protein alpha subunit in which the C-terminal 5 amino acids of Gpal are replaced with the C-terminal 5 amino acids of human Gαi3 (as described in Brown et al. (2000), Yeast 16:11-22). Cells were grown at 30° C. in liquid Synthetic Complete (SC) yeast media (Guthrie and Fink (1991), Methods in Enzymology, Vol. 194) lacking uracil, tryptophan, adenine and leucine to late logarithmic phase (approximately 6 OD600/ml).
Agonists were prepared as 10 mM stocks in DMSO. EC50 values (the concentration required to produce 50% maximal response) were estimated using dilutions of between 3- and 5-fold (BiomekFX, Beckman) into DMSO. Agonist solutions in DMSO (1% final assay volume) were transferred into black, clear bottom, microtitre plates from NUNC (96- or 384-well). Cells were suspended at a density of 0.2 OD600/ml in SC media lacking histidine, uracil, tryptophan, adenine and leucine and supplemented with 10 mM 3-aminotriazole, 0.1M sodium phosphate pH 7.0, and 20 μM fluorescein di-β-D-glucopyranoside (FDGlu). This mixture (50 ul per well for 384-well plates, 200 ul per well for 96-well plates) was added to agonist in the assay plates (Multidrop 384, Labsystems). After incubation at 30° C. for 24 hours, fluorescence resulting from degradation of FDGlu to fluorescein due to exoglucanase, an endogenous yeast enzyme produced during agonist-stimulated cell growth, was determined using a Spectrofluor microtitre plate reader (Tecan; excitation wavelength: 485 nm; emission wavelength: 535 nm). Fluorescence was plotted against compound concentration and iteratively curve fitted using a four parameter fit to generate a concentration effect value. Efficacy (Emax) was calculated from the equation […]
where Max[compound X] and Min[compound X] are the fitted maximum and minimum respectively from the concentration effect curve for compound X, and Max[HU210] and Min[HU210] are the fitted maximum and minimum respectively from the concentration effect curve for (6aR,10aR)-3-(1,1′-Dimethylheptyl)-6a,7,10,10a-tetrahydro-1 hydroxy-6,6-dimethyl-6H-dibenzo[b,d]pyran-9-methanol (HU210; available from Tocris). Equieffective molar ratio (EMR) values were calculated from the equation […]

[2] = biological target: T2, human cannabinoid CB2 receptor (Homo sapiens, UniProt P34972); assay: Cannabinoid CB2 receptor agonist activity, yeast (Saccharomyces cerevisiae) cells expressing the receptor, FDGlu fluorescence; assay type: cell-based; details: for Emax: read-out: efficacy (Emax relative to HU210) at the cloned human cannabinoid CB2 receptor
T2 construct: expressed in transfected cells; host or cells: Saccharomyces cerevisiae strain MMY23 (cassette integrated at the ura3 locus; chimeric Gpa1/Gαi3)
Method in brief: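 S. cerevisiae MMY23 expressing human CB2 with a Gpa1/Gαi3 chimeric G-protein were incubated 24 h at 30° C with agonist in selective medium containing 3-aminotriazole and FDGlu, pH 7.0. Growth-linked fluorescein fluorescence (485/535 nm) gave EC50 by four-parameter fit; Emax and EMR expressed relative to HU210.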

[3] = yeast agonist assay, read-out: EC50 at the cloned human cannabinoid CB2 receptor

T2 sequence (P34972 whole entry): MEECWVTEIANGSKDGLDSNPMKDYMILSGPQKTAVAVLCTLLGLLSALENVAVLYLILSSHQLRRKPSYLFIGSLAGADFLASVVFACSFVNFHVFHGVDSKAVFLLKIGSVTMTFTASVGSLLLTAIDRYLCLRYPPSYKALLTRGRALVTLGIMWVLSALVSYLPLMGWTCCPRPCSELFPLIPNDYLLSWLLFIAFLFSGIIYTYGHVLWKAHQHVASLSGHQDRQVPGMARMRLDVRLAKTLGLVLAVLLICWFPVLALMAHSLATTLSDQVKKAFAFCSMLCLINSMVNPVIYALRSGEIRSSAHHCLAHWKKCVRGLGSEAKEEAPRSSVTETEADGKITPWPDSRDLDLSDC
T1 sequence (P21554 whole entry): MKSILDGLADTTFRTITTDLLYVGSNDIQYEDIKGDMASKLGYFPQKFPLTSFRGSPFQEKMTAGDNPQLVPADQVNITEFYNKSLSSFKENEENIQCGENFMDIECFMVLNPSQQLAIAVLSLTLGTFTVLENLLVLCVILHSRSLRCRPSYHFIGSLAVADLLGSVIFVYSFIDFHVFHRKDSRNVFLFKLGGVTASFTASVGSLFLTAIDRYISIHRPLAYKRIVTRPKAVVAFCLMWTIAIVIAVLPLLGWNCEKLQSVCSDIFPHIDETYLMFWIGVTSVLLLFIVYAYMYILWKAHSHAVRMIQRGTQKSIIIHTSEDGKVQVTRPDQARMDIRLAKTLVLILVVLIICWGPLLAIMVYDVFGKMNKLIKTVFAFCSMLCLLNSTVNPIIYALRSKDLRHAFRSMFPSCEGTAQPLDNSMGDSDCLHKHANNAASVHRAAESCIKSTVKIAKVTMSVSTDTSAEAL

| Compound | EC50 [2, 3] [nM] | Emax ([2]; yeast agonist assay) [%] | Emax [2] [%] | also measured |
| --- | --- | --- | --- | --- |
| CC(NCC1CCCCC1)c1cnc(Nc2cccc(Cl)c2)nc1C(F)(F)F (stereo not shown) [Example 89, (3-Chlorophenyl)-{5-[1-(cyclohexylmethyl-amino)-ethyl]-4-trifluoromethyl-pyrimidin-2-yl}-amine, formate] | < 300 | > 50 |  | Emax [1]: 50 to 100%; EC50 ([1]; yeast agonist assay, read-out: EC50 at the cloned human CB1 receptor): 300 to 1000 nM |
| CC(NCC1CCCC1)c1cnc(Nc2cccc(Cl)c2)nc1C(F)(F)F (stereo not shown) [Example 90, (3-Chlorophenyl)-{5-[1-(cyclopentylmethyl-amino)-ethyl]-4-trifluoromethyl-pyrimidin-2-yl}-amine, formate] | < 300 | > 50 |  |  |
| CC(NCC1CCOCC1)c1cnc(Nc2ccc(Cl)cc2Cl)nc1C(F)(F)F (stereo not shown) [Example 91, (2,4-Dichlorophenyl)-(5-{1-[(tetrahydro-pyran-4-ylmethyl)-amino]-ethyl}-4-trifluoromethyl-pyrimidin-2-yl)-amine] |  |  | > 50 | EC50 [1]: 300 to 1000 nM; Emax [1]: 50 to 100%; EC50 [2]: < 300 nM |
| CC(C)CNC(C)c1cnc(Nc2cccc(Cl)c2)nc1C(F)(F)F (stereo not shown) [Example 92, (3-Chlorophenyl)-[5-(1-isobutylamino-ethyl)-4-trifluoromethyl-pyrimidin-2-yl]-amine, formate] | < 300 | > 50 |  |  |
| CC(c1cnc(Nc2cccc(Cl)c2)nc1C(F)(F)F)N1CCOCC1 (stereo not shown) [Example 93, (3-Chlorophenyl)-[5-(1-morpholin-4-yl-ethyl)-4-trifluoromethyl-pyrimidin-2-yl]-amine] |  |  | > 50 | EC50 [2]: < 300 nM |
| CC(NCC1CC1)c1cnc(Nc2cccc(F)c2)nc1C(F)(F)F (stereo not shown) [Example 94, (3-Fluorophenyl)-{5-[1-(cyclopropylmethyl-amino)-ethyl]-4-trifluoromethyl-pyrimidin-2-yl}-amine, formate] | < 300 | > 50 |  |  |
| CC(NCC1CCCCC1)c1cnc(Nc2ccc(Cl)cc2Cl)nc1C(F)(F)F (stereo not shown) [Example 95, (2,4-Dichlorophenyl)-{5-[1-(cyclohexyhnethyl-amino)-ethyl]-4-trifluoromethyl-pyrimidin-2-yl}-amine] |  |  | > 50 | EC50 [2]: < 300 nM |
| Fc1cc(CNCc2cnc(Nc3cccc(Cl)c3)nc2C(F)(F)F)ccn1 [Example 96, (3-Chlorophenyl)-(5-{[(2-fluoropyridin-4-ylmethyl)amino]-methyl}-4-trifluoromethyl-pyrimidin-2yl}-amine, formate] | 300 to 1000 |  | > 50 |  |
| CC(C)(C)c1nc(Nc2cccc(Cl)c2)ncc1CN1CCOCC1 [Example 97, (4-tert-Butyl-5-morpholin-4-ylmethyl-pyrimidin-2-yl)-(3-chloro-phenyl)-amine hydrochloride] | < 300 | > 50 |  |  |
| CC(C)c1nc(Nc2cccc(Cl)c2)ncc1CNC1CCC1 [Example 98, (3-Chloro-phenyl)-{5-[(cyclobutylamino)-methyl]-4-isopropyl-pyrimidin-2-yl}-amine hydrochloride] | < 300 | > 50 |  |  |
| CC(C)(C)c1nc(Nc2cccc(Cl)c2)ncc1CNCC1CCOCC1 [Example 99, (4-tert-Butyl-5-{[(tetrahydro-pyran-4-ylmethyl)-amino]-methyl}-pyrimidin-2-yl)-(3-chloro-phenyl)-aminehydrochloride] | < 300 | > 50 |  |  |
| CC(C)(C)c1nc(Nc2cccc(Cl)c2)ncc1CNCc1ccc(F)cc1 [Example 100, (4-tert-Butyl-5-[(4-fluoro-benzylamino)-methyl]-pyrimidin-2-yl}-(3-chloro-phenyl)-amine hydrochloride] | < 300 | > 50 |  |  |
| COCCNCc1cnc(Nc2cccc(Cl)c2)nc1C(C)(C)C [Example 101, (4-tert-Butyl-5-[(2-methoxy-ethylamino)-methyl]-pyrimidin-2-yl}-(3-chloro-phenyl)-aminehydrochloride] | < 300 |  | > 50 |  |
| CC(C)CNCc1cnc(Nc2cccc(Cl)c2)nc1C(C)(C)C [Example 102, (4-tert-Butyl-5-(isobutylamino-methyl)-pyrimidin-2-yl]-(3-chloro-phenyl)-aminehydrochloride] | < 300 | > 50 |  |  |
| CC(C)(C)c1nc(Nc2cccc(Cl)c2)ncc1CNCC1CC1 [Example 103, (4-tert-Butyl-5-[(cyclopropylmethyl-amino)-methyl]-pyrimidin-2-yl}-(3-chloro-phenyl)-aminehydrocholoride] | < 300 | > 50 |  |  |
